This is an account of results in patent US20030148970A1, “Methods for specifically inhibiting histone deacetylase-4” (priority 2001, published 2003).

d = 2'-deoxy (DNA); m = 2'-O-methyl Some results are limits rather than exact numbers.

In one data set the target is T1, human HDAC-6 (Homo sapiens, UniProt Q9UBN7).
T1 construct: made in house; host or cells: insect cells (baculovirus expression system)
T1 sequence (Q9UBN7 1-1215): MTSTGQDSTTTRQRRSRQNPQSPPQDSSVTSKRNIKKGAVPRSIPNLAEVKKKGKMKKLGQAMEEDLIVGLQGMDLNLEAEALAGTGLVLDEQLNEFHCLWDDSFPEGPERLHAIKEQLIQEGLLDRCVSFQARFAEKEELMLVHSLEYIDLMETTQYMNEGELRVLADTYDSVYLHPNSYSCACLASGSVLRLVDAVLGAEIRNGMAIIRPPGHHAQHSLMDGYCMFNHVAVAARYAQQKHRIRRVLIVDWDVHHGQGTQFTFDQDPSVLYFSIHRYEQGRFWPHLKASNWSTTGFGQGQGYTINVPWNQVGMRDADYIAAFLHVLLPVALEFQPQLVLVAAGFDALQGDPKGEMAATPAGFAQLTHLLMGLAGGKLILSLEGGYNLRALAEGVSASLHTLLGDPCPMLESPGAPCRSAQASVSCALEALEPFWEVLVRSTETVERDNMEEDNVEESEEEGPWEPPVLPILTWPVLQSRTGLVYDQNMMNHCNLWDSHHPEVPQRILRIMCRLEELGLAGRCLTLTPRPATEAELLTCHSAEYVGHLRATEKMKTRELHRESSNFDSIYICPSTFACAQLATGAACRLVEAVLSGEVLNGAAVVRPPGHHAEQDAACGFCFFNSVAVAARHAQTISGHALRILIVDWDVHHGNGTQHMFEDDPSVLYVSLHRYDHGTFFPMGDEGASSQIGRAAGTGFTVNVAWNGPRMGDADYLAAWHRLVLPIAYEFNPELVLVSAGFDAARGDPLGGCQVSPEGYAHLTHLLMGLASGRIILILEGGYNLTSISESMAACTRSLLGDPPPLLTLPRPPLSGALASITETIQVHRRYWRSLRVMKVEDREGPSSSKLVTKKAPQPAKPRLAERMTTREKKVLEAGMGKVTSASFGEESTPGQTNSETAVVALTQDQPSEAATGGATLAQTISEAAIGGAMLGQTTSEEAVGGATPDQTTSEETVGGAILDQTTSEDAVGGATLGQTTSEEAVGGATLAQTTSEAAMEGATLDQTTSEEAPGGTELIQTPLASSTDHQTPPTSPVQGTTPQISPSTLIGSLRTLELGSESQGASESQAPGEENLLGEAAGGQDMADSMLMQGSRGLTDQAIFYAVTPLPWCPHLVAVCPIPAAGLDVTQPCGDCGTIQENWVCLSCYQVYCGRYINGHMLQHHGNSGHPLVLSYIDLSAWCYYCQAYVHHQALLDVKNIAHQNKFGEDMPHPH
Kind of data set: histone deacetylase enzyme assay, HDAC-6. In kind it is biochemical. How it is done: (§1) The other HDAC isotypes, HDAC-3 and HDAC-4, were purified directly on an anti-Flag affinity column.
(§2) For the deacetylase assay, 20,000 cpm of an [^3H]-metabolically-labeled acetylated histone was used as a substrate. Histones were incubated with cloned recombinant human HDAC enzymes at 37° C. […] All assay conditions were pre-determined to be certain that each reaction was linear. Reactions were stopped by adding acetic acid (0.04 M final concentration) and HCl (250 mM, final concentration). The mixture was extracted with ethyl acetate, and the released [3H]-acetic acid was quantified by liquid scintillation counting. For the inhibition studies, HDAC enzyme was preincubated with test compounds for 30 minutes at 4° C. prior to the start of the enzymatic assay. IC50 values for HDAC enzyme inhibitors were identified with dose response curves for each individual compound and, thereby, obtaining a value for the concentration of inhibitor that produced fifty percent of the maximal inhibition.

The next data set concerns p21. Kind of data set: p21 induction by small molecules. In kind it is cell-based.
Another data set concerns the target T2, human HDAC-3 (Homo sapiens, UniProt O15379).
T2 construct: made in house; host or cells: insect cells (baculovirus expression system)
Description: histone deacetylase enzyme assay, HDAC-3. The data set is classed as biochemical. The method, then: as §1, §2

The target of a further data set is T3, human HDAC-4 (Homo sapiens, UniProt P56524).
T3 construct: Flag; made in house; host or cells: human embryonic kidney 293 cells (calcium phosphate transfection)
T3 sequence (P56524 whole entry): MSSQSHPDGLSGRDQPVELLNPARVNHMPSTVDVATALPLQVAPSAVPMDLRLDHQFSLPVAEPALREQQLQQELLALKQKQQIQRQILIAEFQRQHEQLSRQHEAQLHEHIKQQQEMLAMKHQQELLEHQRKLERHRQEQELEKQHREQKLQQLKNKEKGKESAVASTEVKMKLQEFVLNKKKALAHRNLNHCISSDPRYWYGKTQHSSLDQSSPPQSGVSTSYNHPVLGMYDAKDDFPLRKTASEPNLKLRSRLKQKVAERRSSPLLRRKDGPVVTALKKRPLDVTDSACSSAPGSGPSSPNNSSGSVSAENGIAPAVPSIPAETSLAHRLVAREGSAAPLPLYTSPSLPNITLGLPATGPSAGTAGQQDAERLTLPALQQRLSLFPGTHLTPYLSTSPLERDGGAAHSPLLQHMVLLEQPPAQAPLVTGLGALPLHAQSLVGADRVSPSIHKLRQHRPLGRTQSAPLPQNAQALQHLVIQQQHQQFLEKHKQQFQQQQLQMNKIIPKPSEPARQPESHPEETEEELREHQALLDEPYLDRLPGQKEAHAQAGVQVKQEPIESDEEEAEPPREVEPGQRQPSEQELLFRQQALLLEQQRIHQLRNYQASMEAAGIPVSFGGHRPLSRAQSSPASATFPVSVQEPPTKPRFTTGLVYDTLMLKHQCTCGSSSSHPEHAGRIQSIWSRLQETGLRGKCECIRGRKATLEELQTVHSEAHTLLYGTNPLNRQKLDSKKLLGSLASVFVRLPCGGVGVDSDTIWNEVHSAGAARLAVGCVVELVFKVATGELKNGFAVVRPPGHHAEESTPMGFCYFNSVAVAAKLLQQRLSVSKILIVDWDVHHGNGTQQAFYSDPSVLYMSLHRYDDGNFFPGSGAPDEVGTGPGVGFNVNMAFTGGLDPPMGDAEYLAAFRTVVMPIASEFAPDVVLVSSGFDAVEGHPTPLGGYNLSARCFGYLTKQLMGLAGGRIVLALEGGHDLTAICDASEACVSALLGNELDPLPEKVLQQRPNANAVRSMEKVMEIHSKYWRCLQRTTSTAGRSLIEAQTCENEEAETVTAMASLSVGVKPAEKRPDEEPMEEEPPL
Description: histone deacetylase enzyme assay, HDAC-4. The data set is classed as biochemical. The method, then:
Flag-tagged human HDAC-4 enzyme was produced in human embronic kidney 293 cells after transformation by the calcium phosphate precipitation method. Briefly, 293 cells were cultured in Dulbecco's Modified Eagle Medium (DMEM) containing 10% fetal bovine serum and antibiotics. Plasmid DNA encoding Flag-tagged human HDAC-4 was precipitated by ethanol and resuspend in sterile water. DNA-calcium precipitates, formed by mixing DNA, calcium choloride and 2×HEPES-buffered saline solution, were left on 293 cells for 12-16 hours. Cells were return to serum-contained DMEM medium and harvested at 48 hour post transfection for purification of Flag-tagged HDAC-4 enzyme.
as §1, §2

For another data set, the target named is HDAC 2 (Homo sapiens, UniProt Q92769). Description: histone deacetylase enzyme assay, HDAC 2. The data set is classed as biochemical. How it is done: as §2
HDAC 2, sequence (Q92769 whole entry): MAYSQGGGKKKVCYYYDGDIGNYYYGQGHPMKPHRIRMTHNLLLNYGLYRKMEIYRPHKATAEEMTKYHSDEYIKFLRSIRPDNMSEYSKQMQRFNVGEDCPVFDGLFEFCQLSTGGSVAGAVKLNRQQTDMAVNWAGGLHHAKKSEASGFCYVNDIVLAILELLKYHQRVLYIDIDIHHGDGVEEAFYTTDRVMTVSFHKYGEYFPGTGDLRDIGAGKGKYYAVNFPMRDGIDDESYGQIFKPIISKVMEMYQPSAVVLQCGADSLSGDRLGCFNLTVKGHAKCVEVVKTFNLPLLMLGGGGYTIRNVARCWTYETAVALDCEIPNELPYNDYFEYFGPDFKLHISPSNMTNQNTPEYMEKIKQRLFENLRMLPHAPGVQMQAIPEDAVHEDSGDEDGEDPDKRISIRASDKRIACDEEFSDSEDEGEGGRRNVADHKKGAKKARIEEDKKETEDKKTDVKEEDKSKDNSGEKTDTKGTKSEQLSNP
Data set [1] deals with human colon cancer HCT116 cells. Kind of data set: MTT assay of cell proliferation and cytotoxicity. Particulars: HCT-116, 48 hours. The data set is classed as cell-based. How it is done:
Four thousand five hundred (4,500) human colon cancer HCT116 cells (ATCC, Manassas, Va. were used in an MTT (3-[4,5-dimethylthiazol-2-yl]-2,5 diphenyl tetrazolium bromide) assay to quantitatively determine cell proliferation and cytotoxicity. Typically, HCT116 cells were plated into each well of the 96-well tissue culture plate and left overnight to attach to the plate. Compounds at various concentrations (1 uM, 5 uM and 25 uM, in DMSO) were added in triplicate into the culture media (final DMSO concentration 1%) and incubated for 48 hours. MTT solution (obtained from Sigma as powder) was added and incubated with the cells for 4 hours at 37° C. in incubator with 5% CO2. During the incubation, viable cells convert MTT to a water-insoluble formazan dye. Solubilizing buffer (50% N,N-dimethylformamide, 20% SDS, pH 4.7) was added to cells and incubate for overnight at 37C in incubator with 5% CO2. Solubilized dye was quantitated by colorimetric reading at […] using a reference of […].
(Formazan colour is commonly taken as a measure of viable cells.)

Data set [2] has as its system acetylated histone H-4 in T24 human bladder cancer cells. Kind of data set: inhibition of HDAC activity in whole cells (acetylated histone H-4 Western). In kind it is cell-based. The conditions noted are these: 16 hours. How it is done:
T24 human bladder cancer cells (ATCC, Manassas, Va.) growing in culture were incubated with test compounds for 16 hours. Histones were extracted from the cells by standard procedures (see e.g. Yoshida et al., supra) after the culture period. Twenty μg total core histone protein was loaded onto SDS/PAGE and transferred to nitrocellulose membranes, which were then reacted with polyclonal antibody specific for acetylated histone H-4 (Upstate Biotech Inc., Lake Placid, […].). Horse Radish Peroxidase conjugated secondary antibody was used at a dilution of 1:5000 to detect primary antibody binding. The secondary antibody binding was visualized by use of the Enhanced chemiluminescence (ECL) detection kit (Amersham-Pharmacia Biotech., Inc., Piscataway, N.J.). After exposure to film, acetylated H-4 signal was quantitated by densitometry.

A short description of another data set: cell cycle arrest. In kind it is cell-based.
Another data set deals with human HDAC-4 protein. Kind of data set: Western blot of HDAC-4 protein in A549 cells. The data set is classed as cell-based. The conditions noted are these: 50 nM, 48 hours. The method, then:
Human cancer A549 cells were treated with AS1, AS2 or MM2 oligos for 48 hours. Whole cell lysates were analyzed by Western blotting using antibodies specific against human HDAC4.
OSDN treatment conditions were as previously described.
Cells were lysed in buffer containing 1% Triton X-100, 0.5% sodium deoxycholate, 5 mM EDTA, 25 mM Tris-HCl, pH 7.5, plus protease inhibitors. Total protein was quantified by the protein assay reagent from Bio-Rad (Hercules, Calif.). 100 ug of total protein was analyzed by SDS-PAGE. Next, total protein was transferred onto a PVDF membrane and probed with various HDAC-specific primary antibodies. Rabbit anti-HDAC-1 (H-51), anti-HDAC-2 (H-54) antibodies (Santa Cruz Biotechnologies, Santa Cruz, Calif.) were used at 1:500 dilution. Rabbit anti-HDAC-3 antibody (Sigma, St. Louis, Mo.) was used at a dilution of 1:1000. Anti-HDAC-4 antibody was prepared as previously described (Wang, S. H. et al., (1999) Mol. Cell. Biol. 19:7816-27), and was used at a dilution of 1:1000. Anti-HDAC-6 antibody was raised by immunizing rabbits with a GST fusion protein containing a fragment of HDAC-6 protein (amino acid #990 to #1216, GenBank Accession No. AAD29048). Rabbit antiserum was tested and found only to react specifically to the human HDAC-6 isoform. HDAC-6 antiserum was used at 1:500 dilution in Western blots to detect HDAC-6 in total cell lysates. […]

A further data set deals with HDAC-4 mRNA. Kind of data set: Northern blot of HDAC-4 mRNA in A549 cells. The data set is classed as cell-based, human. Particulars: escalating doses (50 nM or 100 nM), 24 hours. The method, then:
Human cancer A549 cells were treated with escalating doses of AS1, AS2 or MM2 oligos for 24 hours. Total RNAs were harvested for Northern analysis.
Briefly, human A549 and/or T24 human bladder carcinoma cells were seeded in 10 cm tissue culture dishes one day prior to oligonucleotide treatment. The cell lines were obtained from the American Type Culture Collection (ATCC) (Manassas, Va.) and were grown under the recommended culture conditions. Before the addition of the oligonucleotides, cells were washed with PBS (phosphate buffered saline). Next, lipofectin transfection reagent (GIBCO BRL Mississauga, Ontario, Calif.), at a concentration of 6.25 μg/ml, was added to serum free OPTIMEM medium (GIBCO BRL, Rockville, Md.), which was then added to the cells. The oligonucleotides to be screened were then added directly to the cells (i.e., one oligonucleotide per plate of cells). Mismatched oligonucleotides were used as controls. The same concentration of oligonucleotide (e.g., 50 nM) was used per plate of cells for each oligonucleotide tested.
Cells were harvested, and total RNAs were analyzed by Northern blot analysis. Briefly, total RNA was extracted using RNeasy miniprep columns (QIAGEN). Ten to twenty μg of total RNA was run on a formaldehyde-containing 1% agarose gel with 0.5 M sodium phosphate (pH 7.0) as the buffer system. […]

The test system of a further data set is Human A549 cells. Kind of data set: cDNA array analysis of gene transcription. The data set is classed as cell-based. The conditions noted are these: A549, 50 nM, two days. An excerpt:
Fold change on transcriptions was compared to that of HDAC-4 mismatch oligo (MM2) treated cells;

T2 sequence (O15379 whole entry): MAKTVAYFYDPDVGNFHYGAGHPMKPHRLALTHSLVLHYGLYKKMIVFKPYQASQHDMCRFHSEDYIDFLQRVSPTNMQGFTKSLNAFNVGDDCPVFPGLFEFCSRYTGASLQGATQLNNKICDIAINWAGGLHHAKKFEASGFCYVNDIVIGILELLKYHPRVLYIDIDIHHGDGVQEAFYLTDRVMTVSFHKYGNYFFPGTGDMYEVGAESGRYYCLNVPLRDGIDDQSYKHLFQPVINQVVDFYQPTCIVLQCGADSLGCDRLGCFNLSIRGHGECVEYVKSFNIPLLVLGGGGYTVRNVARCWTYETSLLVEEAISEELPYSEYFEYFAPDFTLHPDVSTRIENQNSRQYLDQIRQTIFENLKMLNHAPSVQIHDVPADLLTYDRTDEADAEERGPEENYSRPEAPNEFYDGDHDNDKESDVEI

Turning to `Nc1ccccc1NC(=O)CCCCCCC(=O)c1ccc(-c2ccccc2)nc1` [MG 385 9], the IC50 – broadly, the concentration that inhibits the measured activity by half – on human HDAC-6 is more than 50 µM; against human HDAC-3 it was 18 µM; on human HDAC-4, 13 µM; on HDAC 2 it was 8 µM; in data set [1], 5 µM. Also, in the data set on p21, the p21 induction was determined as 5 µM. Moreover, the “effective concentration for histone H4 acetylation” value in data set [2] amounted to 5 µM. Further, the “cell cycle arrest EC” value in the data set “cell cycle arrest” came out at 3 µM.
Turning to “HDAC4 AS2: 5′-TACAGTCCATGCAACCTCCA-3′, antisense to human HDAC4 3′-UTR, AB006626 (sugars from the 5' end m4 d12 m4, all phosphorothioate, methylation of C and T or U not given here)”, the “expression of HDAC-4 protein” value in the data set with human HDAC-4 protein is given as “can inbibit HDAC4 expression at protein level”. In the data set with HDAC-4 mRNA, the “expression of HDAC-4 mRNA (HDAC4 expression at RNA level)” value was “can inbibit HDAC4 expression at RNA level in a dose-dependent manner”.
With “HDAC-4 AS1: 5′-GCTGCCTGCCGTGCCCACCC-3′, antisense to human HDAC4 5′-UTR, AB006626 (sugars from the 5' end m4 d12 m4, all phosphorothioate, methylation of C and T or U not given here)”, in the data set with Human A549 cells (vs HDAC-4 mismatch oligo (MM2)), the “fold change, CDK4” value is given as −3 fold; the “fold change, Egr-1” value is 3 fold; the “fold change, GADD45” value amounted to 3 fold; the “fold change, GADD153” value is given as 6 fold. Also, in the data set on Human A549 cells (vs HDAC-4 mismatch oligo (MM2)), the “fold change, IL-15” value is given as 4 fold; the “fold change, IRF” value came out at 2 fold; the “fold change, Notch-4” value is −3 fold; the “fold change, PLK” value is −4 fold. For the same compound, in the data set on Human A549 cells (vs HDAC-4 mismatch oligo (MM2)), the “fold change, basic FGF” value stood at 2 fold; the “fold change, cyclin A2” value was −3 fold; the “fold change, cyclin B1” value is −3 fold; the “fold change, p21” value is reported as 4 fold. The “fold change, topo II α” value in the data set on Human A549 cells (vs HDAC-4 mismatch oligo (MM2)) is −5 fold. In addition, the “number of genes with altered expression” value in the data set with Human A549 cells (out of 588 genes) was 39 genes. For the same compound, the “expression of HDAC-4 protein” value in the data set with human HDAC-4 protein is reported as “can inbibit HDAC4 expression at protein level”. In addition, the “expression of HDAC-4 mRNA (HDAC4 expression at RNA level)” value in the data set with HDAC-4 mRNA is given as “can inbibit HDAC4 expression at RNA level in a dose-dependent manner”.
